Measurements published in patent publication US4292319A, “Antiphlogistic pharmaceutical compositions and method of use” (Boehringer Ingelheim GmbH, priority 1977, dated 1981).

Test system: gastro-intestinal side-effects caused by non-steroidal antiphlogistics
Test: Clinical tests of suppression of gastro-intestinal side-effects by pirenzepine
Type: in vivo

`CN1CCN(CC(=O)N2c3ccccc3C(=O)Nc3cccnc32)CC1` [pirenzepine, 5,11-dihydro-11-[(4-methyl-1-piperazinyl)-acetyl]-6H-pyrido[2,3-b] [1,4] benzodiazepin-6-one] was tested, and the “incompatibilities between pirenzepine and non-steroidal antiphlogistics” value (combined administration) was “not observed any incompatibilities” and the “mucous membrane protection by single therapeutic doses at 12-hour intervals” value (single therapeutic doses at 12-hour intervals) was “sufficient to assure round-the-clock mucous membrane protection”.
